Measurements: patent publication US10758534B2 (Vertex Pharmaceuticals Incorporated, priority 2014, dated 2020)

Target: T1, F508del (Homo sapiens, UniProt P13569, DEL508-508)
T1 construct: expressed in transfected cells
Experiment: Protocol 1: membrane potential optical assay (FLIPR III, voltage sensing dye), identification of potentiator compounds
Format: cell-based
Settings: Table 3, compounds of Table 1
Outline: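 Membrane potential in forskolin-activated, temperature-rescued F508del NIH 3T3 cells is followed with a voltage-sensing dye on FLIPR III. A chloride ion gradient created at the single addition step provides the driving force, after prior compound treatment.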

T1 sequence (P13569 with tags, fused parts or gaps DEL508-508): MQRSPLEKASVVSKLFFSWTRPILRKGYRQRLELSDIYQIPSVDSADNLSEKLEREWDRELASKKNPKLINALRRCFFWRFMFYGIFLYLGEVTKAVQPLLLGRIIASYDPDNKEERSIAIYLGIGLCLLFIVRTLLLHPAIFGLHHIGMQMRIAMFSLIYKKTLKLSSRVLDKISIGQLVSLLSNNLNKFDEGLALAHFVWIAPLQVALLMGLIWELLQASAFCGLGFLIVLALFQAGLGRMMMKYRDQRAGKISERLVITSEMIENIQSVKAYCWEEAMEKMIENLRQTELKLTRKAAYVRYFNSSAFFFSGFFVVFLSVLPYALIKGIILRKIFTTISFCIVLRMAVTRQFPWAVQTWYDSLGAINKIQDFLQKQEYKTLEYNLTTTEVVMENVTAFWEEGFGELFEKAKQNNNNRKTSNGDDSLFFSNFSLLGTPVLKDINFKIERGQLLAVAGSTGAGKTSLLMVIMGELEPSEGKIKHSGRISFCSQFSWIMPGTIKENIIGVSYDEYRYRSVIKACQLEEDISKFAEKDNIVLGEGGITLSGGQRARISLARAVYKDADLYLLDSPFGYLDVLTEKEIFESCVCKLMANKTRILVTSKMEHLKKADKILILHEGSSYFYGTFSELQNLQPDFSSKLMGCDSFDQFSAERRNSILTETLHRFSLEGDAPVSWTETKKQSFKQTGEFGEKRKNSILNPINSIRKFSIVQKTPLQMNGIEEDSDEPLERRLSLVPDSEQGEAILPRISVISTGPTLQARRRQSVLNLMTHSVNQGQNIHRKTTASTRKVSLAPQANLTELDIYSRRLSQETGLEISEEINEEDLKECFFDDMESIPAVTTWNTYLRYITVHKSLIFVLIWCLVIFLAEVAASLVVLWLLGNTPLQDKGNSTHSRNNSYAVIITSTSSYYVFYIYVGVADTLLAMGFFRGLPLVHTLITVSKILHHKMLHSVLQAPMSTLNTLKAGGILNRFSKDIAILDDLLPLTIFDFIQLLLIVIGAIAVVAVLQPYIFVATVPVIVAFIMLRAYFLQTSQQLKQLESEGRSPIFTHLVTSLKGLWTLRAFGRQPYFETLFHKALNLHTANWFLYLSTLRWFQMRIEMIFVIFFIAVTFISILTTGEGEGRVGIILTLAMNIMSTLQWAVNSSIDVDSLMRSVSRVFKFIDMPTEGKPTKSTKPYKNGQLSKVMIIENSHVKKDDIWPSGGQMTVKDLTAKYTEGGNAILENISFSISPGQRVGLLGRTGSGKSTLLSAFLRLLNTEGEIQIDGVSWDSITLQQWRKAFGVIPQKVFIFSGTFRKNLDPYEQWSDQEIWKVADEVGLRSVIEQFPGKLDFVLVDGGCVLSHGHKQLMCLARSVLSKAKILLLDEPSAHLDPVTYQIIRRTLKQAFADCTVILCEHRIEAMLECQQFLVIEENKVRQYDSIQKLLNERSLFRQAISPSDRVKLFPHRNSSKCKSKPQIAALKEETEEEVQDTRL

Row | SMILES | EC30
1 | CC(C)COc1cc(F)cc(-c2ccc(C(=O)NS(=O)(=O)c3cccc(N)n3)c(N3CCC(C)C(C)C3)n2)c1 (single isomer, unassigned) [Compound 1863, N-[(6-amino-2-pyridyl)sulfonyl]-2-(3,4-dimethyl-1-piperidyl)-6-(3-fluoro-5-isobutoxy-phenyl)pyridine-3-carboxamide] | +++ (“+++” means <3 uM)
2 | CC(C)COc1cc(-c2ccc(C(=O)NS(=O)(=O)c3cccc(N)n3)c(N3CCC(C)CC3)n2)ccc1Cl [Compound 1266, N-[(6-amino-2-pyridyl)sulfonyl]-6-(4-chloro-3-isobutoxy-phenyl)-2-(4-methyl-1-piperidyl)pyridine-3-carboxamide] | +++ (“+++” means <3 uM)
3 | Cc1ccc(Oc2nc(-c3cc(F)cc(OC(C)C)c3)ccc2C(=O)NS(=O)(=O)c2cccc(N)n2)c(C)c1 [Compound 1150, N-[(6-amino-2-pyridyl)sulfonyl]-2-(2,4-dimethylphenoxy)-6-(3-fluoro-5-isopropoxy-phenyl)pyridine-3-carboxamide] | +++ (“+++” means <3 uM)
4 | CC(C)=C(C)c1ccc(C(=O)NS(=O)(=O)c2cccc(N)n2)c(Oc2c(C)cc(C)cc2C)n1 [Compound 1390, N-[(6-amino-2-pyridyl)sulfonyl]-6-(1,2-dimethylprop-1-enyl)-2-(2,4,6-trimethylphenoxy)pyridine-3-carboxamide] | +++ (“+++” means <3 uM)
5 | CC(C)COc1cc(F)cc(-c2ccc(C(=O)NS(=O)(=O)c3cccc(N)n3)c(N3CCCC3C(C)C)n2)c1 (centres unmarked) [Compound 1258, N-[(6-amino-2-pyridyl)sulfonyl]-6-(3-fluoro-5-isobutoxy-phenyl)-2-(2-isopropylpyrrolidin-1-yl)pyridine-3-carboxamide] | +++ (“+++” means <3 uM)
6 | CCC(Oc1nc(-c2cc(F)cc(OCC(C)C)c2)ccc1C(=O)NS(=O)(=O)c1cccc(N)n1)C1CC1(C)C (centres unmarked) [Compound 1639, N-[(6-amino-2-pyridyl)sulfonyl]-2-[1-(2,2-dimethylcyclopropyl)propoxy]-6-(3-fluoro-5-isobutoxy-phenyl)pyridine-3-carboxamide] | +++ (“+++” means <3 uM)
7 | CCCOc1ccc(-c2ccc(C(=O)NS(=O)(=O)c3ccc[nH]c3=O)c(Oc3c(C)cc(C)cc3C)n2)cc1 [Compound 1202, N-[(2-oxo-1H-pyridin-3-yl)sulfonyl]-6-(4-propoxyphenyl)-2-(2,4,6-trimethylphenoxy)pyridine-3-carboxamide] | +++ (“+++” means <3 uM)
8 | Cc1cc(C)c(CN2Cc3ccc(O)cc3C2(C)C(=O)NS(=O)(=O)c2cccc(N)n2)c(C)c1 (centres unmarked) [Compound 885, N-[(6-amino-2-pyridyl)sulfonyl]-6-hydroxy-1-methyl-2-[(2,4,6-trimethylphenyl)methyl]isoindoline-1-carboxamide] | ++ (“++” means between 3 uM and 10 uM)
9 | Cc1cc(C)c(Oc2nc(C(C)(C)C)ccc2C(=O)NS(=O)(=O)c2ccnn2C)c(C)c1 [Compound 911, 6-tert-butyl-N-(2-methylpyrazol-3-yl)sulfonyl-2-(2,4,6-trimethylphenoxy)pyridine-3-carboxamide] | +++ (“+++” means <3 uM)
10 | CCc1cnc2c(c1)cc(C(=O)NS(=O)(=O)c1cccc(N)n1)n2Cc1c(C)cc(C)cc1C [Compound 816, N-[(6-amino-2-pyridyl)sulfonyl]-5-ethyl-1-[(2,4,6-trimethylphenyl)methyl]pyrrolo[2,3-b]pyridine-2-carboxamide] | ++ (“++” means between 3 uM and 10 uM)
11 | CC(C)COc1cc(F)cc(-c2ccc(C(=O)NS(=O)(=O)c3cccc(N)n3)c(N3CCC(C)(C)[C@@H]3C)n2)c1 [Compound 1144, N-[(6-amino-2-pyridyl)sulfonyl]-6-(3-fluoro-5-isobutoxy-phenyl)-2-[(2S)-2,3,3-trimethylpyrrolidin-1-yl]pyridine-3-carboxamide] | +++ (“+++” means <3 uM)
12 | Cc1cc(C)c(Oc2nc(-c3cc(F)cc(OC(C)C)c3)ccc2C(=O)NS(=O)(=O)c2cccc(N)n2)c(C)c1 [Compound 1138, N-[(6-amino-2-pyridyl)sulfonyl]-6-(3-fluoro-5-isopropoxy-phenyl)-2-(2,4,6-trimethylphenoxy)pyridine-3-carboxamide] | +++ (“+++” means <3 uM)

Further lines, results first:

Row | EC30 | SMILES
13 | ++ (“++” means between 3 uM and 10 uM) | CC1CN(c2ncccc2C(=O)NS(=O)(=O)c2cccc(Oc3ccc4cccnc4c3)n2)C(C)(C)C1 (centres unmarked) [Compound 1875, N—[[6-(7-quinolyloxy)-2-pyridyl]sulfonyl]-2-(2,2,4-trimethylpyrrolidin-1-yl)pyridine-3-carboxamide]
14 | +++ (“+++” means <3 uM) | CC(Oc1nc(N2C[C@@H](C)CC2(C)C)c(C(=O)NS(=O)(=O)c2cccc(N)n2)cc1F)C1CCCC1 (stereo partly drawn) [Compound 1966, N-[(6-amino-2-pyridyl)sulfonyl]-6-(1-cyclopentylethoxy)-5-fluoro-2-[(4S)-2,2,4-trimethylpyrrolidin-1-yl]pyridine-3-carboxamide]
15 | +++ (“+++” means <3 uM) | C[C@@H]1CN(c2nc(C3=COCC3)ccc2C(=O)NS(=O)(=O)c2cccc(N)n2)C(C)(C)C1 [Compound 1455, N-[(6-amino-2-pyridyl)sulfonyl]-6-(2,3-dihydrofuran-4-yl)-2-[(4S)-2,2,4-trimethylpyrrolidin-1-yl]pyridine-3-carboxamide]
16 | +++ (“+++” means <3 uM) | COc1ncccc1S(=O)(=O)NC(=O)c1cc2ccc(C)cc2nc1N1C[C@@H](C)CC1(C)C [Compound 1859, N-[(2-methoxy-3-pyridyl)sulfonyl]-7-methyl-2-[(4S)-2,2,4-trimethylpyrrolidin-1-yl]quinoline-3-carboxamide]
17 | +++ (“+++” means <3 uM) | COc1cc(-c2ccc(C(=O)NS(=O)(=O)c3ccc[nH]c3=O)c(N3C[C@@H](C)CC3(C)C)n2)cc(F)c1F [Compound 1914, 6-(3,4-difluoro-5-methoxy-phenyl)-N-[(2-oxo-1H-pyridin-3-yl)sulfonyl]-2-[(4S)-2,2,4-trimethylpyrrolidin-1-yl]pyridine-3-carboxamide]
18 | ++ (“++” means between 3 uM and 10 uM) | COc1ccc(C(=O)NS(=O)(=O)c2cccc(N)n2)c(Oc2c(C)cc(C)cc2C)n1 [Compound 806, N-[(6-amino-2-pyridyl)sulfonyl]-6-methoxy-2-(2,4,6-trimethylphenoxy)pyridine-3-carboxamide]
19 | +++ (“+++” means <3 uM) | Cc1cc(C)c(Oc2nc(C3=CCSCC3)ccc2C(=O)NS(=O)(=O)c2cccc(N)n2)c(C)c1 [Compound 1517, N-[(6-amino-2-pyridyl)sulfonyl]-6-(3,6-dihydro-2H-thiopyran-4-yl)-2-(2,4,6-trimethylphenoxy)pyridine-3-carboxamide]
20 | +++ (“+++” means <3 uM) | Cc1cc(OC(C)C)nc(-c2ccc(C(=O)NS(=O)(=O)c3cccc(N)n3)c(N3C[C@@H](C)CC3(C)C)n2)c1 [Compound 1637, N-[(6-amino-2-pyridyl)sulfonyl]-6-(6-isopropoxy-4-methyl-2-pyridyl)-2-[(4S)-2,2,4-trimethylpyrrolidin-1-yl]pyridine-3-carboxamide]
21 | +++ (“+++” means <3 uM) | CC1CN(c2ncccc2C(=O)NS(=O)(=O)c2cccc(Oc3ccc4ccccc4n3)n2)C(C)(C)C1 (centres unmarked) [Compound 1989, N—[[6-(2-quinolyloxy)-2-pyridyl]sulfonyl]-2-(2,2,4-trimethylpyrrolidin-1-yl)pyridine-3-carboxamide]
22 | +++ (“+++” means <3 uM) | C[C@@H]1CN(c2nc(CCC3CC3)ccc2C(=O)NS(=O)(=O)c2cccc(N)n2)C(C)(C)C1 [Compound 1677, N-[(6-amino-2-pyridyl)sulfonyl]-6-(2-cyclopropylethyl)-2-[(4S)-2,2,4-trimethylpyrrolidin-1-yl]pyridine-3-carboxamide]
23 | ++ (“++” means between 3 uM and 10 uM) | C[C@@H]1CN(c2nc(-c3ccccc3CO)ccc2C(=O)NS(=O)(=O)c2cccnc2N)C(C)(C)C1 [Compound 1706, N-[(2-amino-3-pyridyl)sulfonyl]-6-[2-(hydroxymethyl)phenyl]-2-[(4S)-2,2,4-trimethylpyrrolidin-1-yl]pyridine-3-carboxamide]
24 | +++ (“+++” means <3 uM) | C[C@@H]1CN(c2nc(C3=CCCCO3)ccc2C(=O)NS(=O)(=O)c2cccnc2N)C(C)(C)C1 [Compound 1699, N-[(2-amino-3-pyridyl)sulfonyl]-6-(3,4-dihydro-2H-pyran-6-yl)-2-[(4S)-2,2,4-trimethylpyrrolidin-1-yl]pyridine-3-carboxamide]
25 | +++ (“+++” means <3 uM) | C[C@@H]1CN(c2nc(-c3cccc(C#N)c3)ccc2C(=O)NS(=O)(=O)c2cccnc2N)C(C)(C)C1 [Compound 1824, N-[(2-amino-3-pyridyl)sulfonyl]-6-(3-cyanophenyl)-2-[(4S)-2,2,4-trimethylpyrrolidin-1-yl]pyridine-3-carboxamide]
26 | +++ (“+++” means <3 uM) | CC1CN(c2ncccc2C(=O)NS(=O)(=O)c2cccc(NCc3cc(F)ccc3F)n2)C(C)(C)C1 (centres unmarked) [Compound 1770, N—[[6-[(2,5-difluorophenyl)methylamino]-2-pyridyl]sulfonyl]-2-(2,2,4-trimethylpyrrolidin-1-yl)pyridine-3-carboxamide]
27 | +++ (“+++” means <3 uM) | C[C@@H]1CN(c2nc(C3CCOCC3)ccc2C(=O)NS(=O)(=O)c2cccc(N)n2)C(C)(C)C1 [Compound 1595, N-[(6-amino-2-pyridyl)sulfonyl]-6-tetrahydropyran-4-yl-2-[(4S)-2,2,4-trimethylpyrrolidin-1-yl]pyridine-3-carboxamide]
28 | +++ (“+++” means <3 uM) | CC(C)CCOc1cccc(-c2ccc(C(=O)NS(=O)(=O)c3cccc(N)n3)c(N3CC(C)CC3(C)C)n2)n1 (centres unmarked) [Compound 1135, N-[(6-amino-2-pyridyl)sulfonyl]-6-(6-isopentyloxy-2-pyridyl)-2-(2,2,4-trimethylpyrrolidin-1-yl)pyridine-3-carboxamide]
29 | ++ (“++” means between 3 uM and 10 uM) | CC1CN(c2ncccc2C(=O)NS(=O)(=O)c2cccc(N3CCCC(c4ccccc4)C3)n2)C(C)(C)C1 (centres unmarked) [Compound 1755, N—[[6-(3-phenyl-1-piperidyl)-2-pyridyl]sulfonyl]-2-(2,2,4-trimethylpyrrolidin-1-yl)pyridine-3-carboxamide]
